#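 Method: 48-hour compound exposure of cells in 96-well plates, five concentrations, linear interpolation of endpoints. At the GI50, growth is halved. Definition used: TGI = concentration required for complete inhibition of growth.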
# How the values were obtained:
# Experiment in all cases: NCI-60 cell line screen, 48 h
# [1] = system: 786-0 renal
# [2] = system: A498 renal
# [3] = system: A549 NSCLC
# [4] = system: ACHN renal
# [5] = system: BT-549 breast
# [6] = system: CAKI-1 renal
# [7] = system: CCRF-CEM leukemia
# [8] = system: COLO 205 colon
# [9] = system: DU-145 prostate
# [10] = system: EKVX NSCLC
# [11] = system: HCT-116 colon
# [12] = system: HCT-15 colon
# [13] = system: HL-60(TB) leukemia
# [14] = system: HOP-62 NSCLC
# [15] = system: HOP-92 NSCLC
# [16] = system: HS 578T breast
# [17] = system: HT29 colon
# [18] = system: IGROV1 ovarian
# [19] = system: K-562 leukemia
# [20] = system: KM12 colon
# [21] = system: LOX IMVI melanoma
# [22] = system: M14 melanoma
# [23] = system: MALME-3M melanoma
# [24] = system: MCF7 breast
# [25] = system: MDA-MB-231 breast
# [26] = system: MDA-MB-435
# [27] = system: MOLT-4 leukemia
# [28] = system: NCI-H226 lung
# [29] = system: NCI-H23 lung
# [30] = system: NCI-H460 lung
# [31] = system: NCI-H522 lung
# [32] = system: NCI/ADR-RES ovarian
# [33] = system: OVCAR-3 ovarian
# [34] = system: OVCAR-4 ovarian
# [35] = system: OVCAR-5 ovarian
# [36] = system: OVCAR-8 ovarian
# [37] = system: PC-3 prostate
# [38] = system: RPMI-8226 leukemia
# [39] = system: SF-268 CNS
# [40] = system: SF-295 CNS
# [41] = system: SF-539 CNS
# [42] = system: SK-MEL-2 melanoma
# [43] = system: SK-MEL-28 melanoma
# [44] = system: SK-MEL-5 melanoma
# [45] = system: SK-OV-3 ovarian
# [46] = system: SN12C renal
# [47] = system: SNB-19 CNS
# [48] = system: SNB-75 CNS
# [49] = system: SR leukemia
# [50] = system: SW-620 colon
# [51] = system: T-47D breast
# [52] = system: TK-10 renal
# [53] = system: U251 CNS
# [54] = system: UACC-257 melanoma
# [55] = system: UACC-62 melanoma
# [56] = system: UO-31 renal
# [57] = system: HCC-2998 colon
structure (smiles),measurement,setting,value
COc1ccc(N2CCN(C(=O)c3ccc(C(F)(F)F)nc3Nc3cc(Cl)ccc3C)CC2)cc1,GI50,[1],4.47 µM
same,TGI,[1],16.8 µM
same,GI50,[2],6.01 µM
same,TGI,[2],19.8 µM
same,GI50,[3],10.2 µM
same,TGI,[3],27.7 µM
same,GI50,[4],7.78 µM
same,TGI,[4],31.1 µM
same,GI50,[5],10.2 µM
same,TGI,[5],23.7 µM
same,GI50,[6],1.38 µM
same,TGI,[6],8.36 µM
same,GI50,[7],8.79 µM
same,TGI,[7],38.5 µM
same,GI50,[8],11.4 µM
same,TGI,[8],26.2 µM
same,GI50,[9],14.7 µM
same,TGI,[9],31 µM
same,GI50,[10],2.67 µM
same,TGI,[10],21.1 µM
same,GI50,[11],6.38 µM
same,TGI,[11],19 µM
same,GI50,[12],7.71 µM
same,TGI,[12],21.2 µM
same,GI50,[13],6.94 µM
same,TGI,[13],28.6 µM
same,GI50,[14],13.2 µM
same,TGI,[14],25.9 µM
same,GI50,[15],1.49 µM
same,TGI,[15],7.97 µM
same,GI50,[16],4.09 µM
same,TGI,[16],22.1 µM
same,GI50,[17],4.45 µM
same,TGI,[17],18 µM
same,GI50,[18],0.0509 µM
same,TGI,[18],20.3 µM
same,GI50,[19],4.76 µM
same,TGI,[19],22.8 µM
same,GI50,[20],6.91 µM
same,TGI,[20],20.8 µM
same,GI50,[21],10.4 µM
same,TGI,[21],22.1 µM
same,GI50,[22],10.6 µM
same,TGI,[22],22.6 µM
same,GI50,[23],10.6 µM
same,TGI,[23],28.4 µM
same,GI50,[24],2.88 µM
same,TGI,[24],21 µM
same,GI50,[25],4.09 µM
same,TGI,[25],15.6 µM
same,GI50,[26],11.2 µM
same,TGI,[26],27.5 µM
same,GI50,[27],4.49 µM
same,TGI,[27],29.6 µM
same,GI50,[28],14.3 µM
same,TGI,[28],36.3 µM
same,GI50,[29],9.12 µM
same,TGI,[29],23.9 µM
same,GI50,[30],6.11 µM
same,TGI,[30],21 µM
same,GI50,[31],3.38 µM
same,TGI,[31],22.3 µM
same,GI50,[32],10.1 µM
same,TGI,[32],27.3 µM
same,GI50,[33],2.98 µM
same,TGI,[33],19 µM
same,GI50,[34],7.83 µM
same,TGI,[34],29.9 µM
same,GI50,[35],10.6 µM
same,TGI,[35],25.1 µM
same,GI50,[36],11.3 µM
same,TGI,[36],38.7 µM
same,GI50,[37],5.44 µM
same,TGI,[37],32.7 µM
same,GI50,[38],7.46 µM
same,TGI,[38],49.2 µM
same,GI50,[39],7.04 µM
same,TGI,[39],22.4 µM
same,GI50,[40],9.78 µM
same,TGI,[40],27.9 µM
same,GI50,[41],10.7 µM
same,TGI,[41],24.7 µM
same,GI50,[42],0.949 µM
same,TGI,[42],19 µM
same,GI50,[43],14 µM
same,TGI,[43],30.3 µM
same,GI50,[44],8.02 µM
same,TGI,[44],20.8 µM
same,GI50,[45],4.67 µM
same,TGI,[45],22.1 µM
same,GI50,[46],11.8 µM
same,TGI,[46],24.4 µM
same,GI50,[47],9.17 µM
same,TGI,[47],22.5 µM
same,GI50,[48],3.66 µM
same,TGI,[48],22.6 µM
same,GI50,[49],4.65 µM
same,TGI,[49],39 µM
same,GI50,[50],10.5 µM
same,TGI,[50],22.4 µM
same,GI50,[51],2.8 µM
same,TGI,[51],26.2 µM
same,GI50,[52],15 µM
same,TGI,[52],34.6 µM
same,GI50,[53],9.37 µM
same,TGI,[53],21.2 µM
same,GI50,[54],10.7 µM
same,TGI,[54],28.3 µM
same,GI50,[55],8.15 µM
same,TGI,[55],20.8 µM
same,GI50,[56],1.69 µM
same,TGI,[56],10.9 µM
C=C1C(=O)O[C@H]2[C@H]1CC/C(COC(=O)CCCC(=O)OC/C1=C/CC[C@@]3(C)O[C@H]3[C@H]3OC(=O)C(=C)[C@@H]3CC1)=C\CC[C@@]1(C)O[C@@H]21,GI50,[1],1.35 µM
same,TGI,[1],2.79 µM
same,GI50,[2],5.58 µM
same,TGI,[2],19 µM
same,GI50,[3],4.46 µM
same,TGI,[3],41.7 µM
same,GI50,[4],0.764 µM
same,TGI,[4],2.03 µM
same,GI50,[5],1.37 µM
same,TGI,[5],2.95 µM
same,GI50,[7],0.281 µM
same,TGI,[7],0.757 µM
same,GI50,[8],0.592 µM
same,TGI,[8],2.15 µM
same,GI50,[9],1.45 µM
same,TGI,[9],2.77 µM
same,GI50,[57],2.07 µM
same,TGI,[57],4.22 µM
same,GI50,[11],1.29 µM
same,TGI,[11],2.57 µM
same,GI50,[12],0.814 µM
same,TGI,[12],2.35 µM
same,GI50,[13],0.274 µM
same,TGI,[13],1.39 µM
same,GI50,[14],3.31 µM
same,TGI,[14],16 µM
same,GI50,[15],1.87 µM
same,TGI,[15],3.65 µM
same,GI50,[16],3.42 µM
same,TGI,[16],> 100 µM
same,GI50,[17],0.752 µM
same,TGI,[17],2.16 µM
same,GI50,[18],1.66 µM
same,TGI,[18],4.54 µM
same,GI50,[20],2.24 µM
same,TGI,[20],6.85 µM
same,GI50,[21],1.04 µM
same,TGI,[21],2.31 µM
same,GI50,[22],1.72 µM
same,TGI,[22],4.51 µM
same,GI50,[24],0.5 µM
same,TGI,[24],2.43 µM
same,GI50,[25],1.39 µM
same,TGI,[25],2.9 µM
same,GI50,[26],1.69 µM
same,TGI,[26],5.18 µM
same,GI50,[27],0.396 µM
same,TGI,[27],2.07 µM
same,GI50,[29],2.28 µM
same,TGI,[29],6.67 µM
same,GI50,[30],3.18 µM
same,TGI,[30],12.7 µM
same,GI50,[31],0.678 µM
same,TGI,[31],2.34 µM
same,GI50,[32],4.63 µM
same,TGI,[32],> 100 µM
same,GI50,[33],0.401 µM
same,TGI,[33],1.52 µM
same,GI50,[37],2.86 µM
same,TGI,[37],8.37 µM
same,GI50,[38],0.362 µM
same,TGI,[38],1.5 µM
same,GI50,[39],2.77 µM
same,TGI,[39],15.1 µM
same,GI50,[40],4.71 µM
same,TGI,[40],> 100 µM
same,GI50,[42],2.18 µM
same,TGI,[42],6.5 µM
same,GI50,[44],2.25 µM
same,TGI,[44],5.68 µM
same,GI50,[45],9.89 µM
same,TGI,[45],> 100 µM
same,GI50,[46],2.3 µM
same,TGI,[46],6.92 µM
same,GI50,[47],2.91 µM
same,TGI,[47],14.4 µM
same,GI50,[48],2.84 µM
same,TGI,[48],> 100 µM
same,GI50,[49],0.501 µM
same,TGI,[49],3.45 µM
same,GI50,[50],0.608 µM
same,TGI,[50],2.04 µM
same,GI50,[51],1.19 µM
same,TGI,[51],3.81 µM
same,GI50,[52],1.53 µM
same,TGI,[52],3.04 µM
same,GI50,[53],2.92 µM
same,TGI,[53],10.3 µM
same,GI50,[54],2 µM
same,TGI,[54],4.97 µM
same,GI50,[55],1.54 µM
same,TGI,[55],4.53 µM
same,GI50,[56],1.11 µM
same,TGI,[56],2.31 µM
